Experimental data from patent publication US11110138B2 (priority 2012, dated 2021).

Experiment: in vitro
Conditions: African green monkey

CS(=O)(=O)OCCCCOS(C)(=O)=O [busulfan] gave a viability of roughly 82%.
